# From US11840686B2, “Modulation of prekallikrein (PKK) expression” (Ionis Pharmaceuticals, Inc., priority 2013, dated 2023)
# Strand notation (5' to 3'): a small letter for the sugar, then the base; units joined by * are phosphorothioate-linked, units joined directly phosphodiester-linked; [ ] holds rarer units or linkages, { } end groups; capitals alone tell only the bases. e = 2'-O-(2-methoxyethyl) (MOE); [5mC] = 5-methylcytosine; d = 2'-deoxy (DNA)
# Key:
# [1] = system: human PKK mRNA; assay: Dose-dependent antisense inhibition of human PKK in HepaRG cells, 0.19-5.00 uM (Example 5); type: cell-based; conditions: for percent inhibition of PKK mRNA, 0.19 μM: 0.19 μM antisense oligonucleotide; for percent inhibition of PKK mRNA, 0.56 μM: 0.56 μM antisense oligonucleotide; for percent inhibition of PKK mRNA, 1.67 μM: 1.67 μM antisense oligonucleotide; for percent inhibition of PKK mRNA, 5.00 μM: 5.00 μM antisense oligonucleotide
# Protocol: Cells were plated at a density of 20,000 cells per well and transfected using electroporation with 0.19 μM, 0.56 μM, 1.67 μM, and 5.00 μM concentrations of antisense oligonucleotide. After a treatment period of approximately 16 hours, RNA was isolated from the cells and PKK mRNA levels were measured by quantitative real-time PCR. Human PKK primer probe set RTS3454 was used to measure mRNA levels. PKK mRNA levels were adjusted according to total RNA content, as measured by RIBOGREEN®. The antisense oligonucleotides were tested in a series of experiments that had similar culture conditions.
# The half maximal inhibitory concentration (IC50) of each oligonucleotide is also presented.
# [2] = system: human PKK mRNA; assay: Antisense inhibition of human PKK mRNA in HepaRG cells, 5,000 nM (Example 2); type: cell-based
# Procedure, shortened: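 HepaRG cells, 20,000 per well, were electroporated with 5,000 nM MOE gapmer (phosphorothioate, 5-methylcytosine) and incubated about 24 hours. PKK mRNA was quantified by qRT-PCR with primer probe set RTS3454, normalized to RIBOGREEN total RNA, and expressed as percent inhibition versus untreated controls.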
# [3] = HepaRG cells, electroporation, approximately 16 hours, Table 38
# [4] = HepaRG cells, electroporation with 5,000 nM antisense oligonucleotide, approximately 24 hours, PKK mRNA by RT-PCR (RTS3454), relative to untreated control cells, Table 6 experiment
# [5] = HepaRG cells, electroporation, approximately 16 hours, Table 41
# [6] = 4 point dose response, HepaRG cells, Table 41
# [7] = Table 34, HepaRG, electroporation, ~16 h
# [8] = Table 34, PKK mRNA, HepaRG, electroporation, ~16 h
# [9] = human PKK mRNA in HepaRG cells, 5-10-5 gapmers, Table 14
# [10] = HepaRG cells, electroporation, approximately 16 hours, Table 37
# [11] = 4 point dose response, HepaRG cells, Table 37
# [12] = HepaRG cells, electroporation, approximately 16 hours, Table 35
# [13] = 4 point dose response, HepaRG cells, Table 35
# [14] = HepaRG cells, electroporation, approximately 16 hours, Table 36
# [15] = 4 point dose response, HepaRG cells, Table 36
# [16] = HepaRG cells, electroporation, approximately 16 hours, Table 39
# [17] = 4 point dose response, HepaRG cells, Table 39
# [18] = HepaRG cells, 5,000 nM antisense oligonucleotide, 5-10-5 gapmers, Table 16
# [19] = HepaRG cells, electroporation, approximately 16 hours, Table 40
substance,measurement,setting,value
546198 (antisense eT*e[5mC]*eT*eT*e[5mC]*dA*dA*d[5mC]*dA*d[5mC]*dT*dG*d[5mC]*dT*dA*eA*e[5mC]*e[5mC]*eT*eT) [compound 546198],percent inhibition of PKK at 0.19 μM,[1]; [3],7%
same,percent inhibition of PKK at 0.56 μM,[1]; [3],3%
same,percent inhibition of PKK at 1.67 μM,[1]; [3],45%
same,percent inhibition of PKK at 5.00 μM,[1]; [3],92%
same,IC50,"[1]; 4 point dose response, HepaRG cells, Table 38",1300 nM
same,% inhibition,[2]; [4],85%
547587 (e[5mC]*eT*eA*eT*eA*dA*d[5mC]*dA*dG*dT*dA*dT*d[5mC]*dA*d[5mC]*eT*eG*eT*e[5mC]*e[5mC]; antisense) [compound 547587],percent inhibition of PKK at 5.00 μM,[1]; [5],97%
same,percent inhibition of PKK at 0.19 0μM,[1]; [5],38%
same,percent inhibition of PKK at 0.56 0μM,[1]; [5],64%
same,percent inhibition of PKK at 1.67 1μM,[1]; [5],91%
same,IC50,[1]; [6],300 nM
same,percent inhibition of PKK at 0.19 μM,[1]; [7],20%
same,percent inhibition of PKK at 0.56 μM,[1]; [7],62%
same,percent inhibition of PKK at 1.67 μM,[1]; [7],84%
same,percent inhibition of PKK at 5.00 μM,[1]; [7],86%
same,IC50,[1]; [8],500 nM
same,% inhibition,[2]; [9],96%
546877 (e[5mC]*eA*e[5mC]*eT*eG*dT*d[5mC]*d[5mC]*dT*dA*dT*dA*dT*d[5mC]*dA*e[5mC]*eT*eG*eT*eA; antisense) [compound 546877],percent inhibition of PKK at 0.19 μM,[1]; [10],0%
same,percent inhibition of PKK at 0.56 μM,[1]; [10],19%
same,percent inhibition of PKK at 1.67 μM,[1]; [10],75%
same,percent inhibition of PKK at 5.00 μM,[1]; [10],80%
same,IC50,[1]; [11],1300 nM
same,% inhibition,[2]; [9],88%
546190 (antisense e[5mC]*eT*e[5mC]*eT*e[5mC]*dA*dT*dA*dT*d[5mC]*dA*dA*d[5mC]*dT*d[5mC]*e[5mC]*eT*eT*eT*eA) [compound 546190],percent inhibition of PKK at 0.19 μM,[1]; [12],33%
same,percent inhibition of PKK at 0.56 μM,[1]; [12],65%
same,percent inhibition of PKK at 1.67 μM,[1]; [12],86%
same,IC50,[1]; [13],400 nM
same,"percent inhibition of PKK mRNA, 0.19 μM",[1]; HepaRG cells,21%
same,"percent inhibition of PKK mRNA, 0.56 μM",[1]; HepaRG cells,34%
same,"percent inhibition of PKK mRNA, 1.67 μM",[1]; HepaRG cells,76%
same,"percent inhibition of PKK mRNA, 5.00 μM",[1]; HepaRG cells,98%
same,IC50,"[1]; HepaRG cells, 0.19-5.00 μM",700 nM
same,% inhibition,[2]; [4],92%
546188 (antisense e[5mC]*eT*e[5mC]*e[5mC]*eT*dT*dT*dA*dT*dA*dA*dA*dT*dG*dT*e[5mC]*eT*e[5mC]*eG*eA) [compound 546188],percent inhibition of PKK at 5.00 μM,[1]; [5],97%
same,percent inhibition of PKK at 0.19 0μM,[1]; [5],27%
same,percent inhibition of PKK at 0.56 0μM,[1]; [5],69%
same,percent inhibition of PKK at 1.67 1μM,[1]; [5],88%
same,IC50,[1]; [6],400 nM
same,percent inhibition of PKK at 0.19 μM,[1]; [7],36%
same,percent inhibition of PKK at 0.56 μM,[1]; [7],55%
same,percent inhibition of PKK at 1.67 μM,[1]; [7],81%
same,percent inhibition of PKK at 5.00 μM,[1]; [7],83%
same,IC50,[1]; [8],400 nM
same,% inhibition,[2]; [4],95%
546247 (e[5mC]*e[5mC]*eA*eA*eA*dG*dT*d[5mC]*dA*dA*d[5mC]*dT*d[5mC]*d[5mC]*d[5mC]*eG*eG*eG*eT*eA; antisense) [compound 546247],percent inhibition of PKK at 0.19 μM,[1]; [14],0%
same,percent inhibition of PKK at 0.56 μM,[1]; [14],29%
same,percent inhibition of PKK at 1.67 μM,[1]; [14],71%
same,percent inhibition of PKK at 5.00 μM,[1]; [14],88%
same,IC50,[1]; [15],1100 nM
same,% inhibition,"[2]; Table 7, HepaRG cells, electroporation with 5,000 nM antisense oligonucleotide, approx. 24 hours, PKK mRNA by RT-PCR (RTS3454), relative to untreated control cells",90%
546872 (e[5mC]*eA*e[5mC]*eT*eG*dT*dA*d[5mC]*d[5mC]*dT*dA*dT*dA*dA*d[5mC]*eT*e[5mC]*eT*eA*eA; antisense) [compound 546872],percent inhibition of PKK at 0.19 μM,[1]; [16],32%
same,percent inhibition of PKK at 0.56 μM,[1]; [16],33%
same,percent inhibition of PKK at 1.67 μM,[1]; [16],82%
same,percent inhibition of PKK at 5.00 μM,[1]; [16],94%
same,IC50,[1]; [17],400 nM
same,"percent inhibition of PKK mRNA, 0.19 μM",[1]; HepaRG cells,42%
same,"percent inhibition of PKK mRNA, 0.56 μM",[1]; HepaRG cells,13%
same,"percent inhibition of PKK mRNA, 1.67 μM",[1]; HepaRG cells,59%
same,"percent inhibition of PKK mRNA, 5.00 μM",[1]; HepaRG cells,99%
same,IC50,"[1]; HepaRG cells, 0.19-5.00 μM",1400 nM
same,% inhibition,[2]; [9],87%
546939 (eG*e[5mC]*e[5mC]*eA*eT*d[5mC]*dT*dG*dG*dT*dT*dA*dG*d[5mC]*d[5mC]*eT*e[5mC]*e[5mC]*eG*eA; antisense) [compound 546939],percent inhibition of PKK at 0.19 μM,[1]; [10],1%
same,percent inhibition of PKK at 0.56 μM,[1]; [10],66%
same,percent inhibition of PKK at 1.67 μM,[1]; [10],86%
same,percent inhibition of PKK at 5.00 μM,[1]; [10],90%
same,IC50,[1]; [11],600 nM
same,"percent inhibition of PKK mRNA, 0.19 μM",[1]; HepaRG cells,16%
same,"percent inhibition of PKK mRNA, 0.56 μM",[1]; HepaRG cells,71%
same,"percent inhibition of PKK mRNA, 1.67 μM",[1]; HepaRG cells,96%
same,"percent inhibition of PKK mRNA, 5.00 μM",[1]; HepaRG cells,95%
same,IC50,"[1]; HepaRG cells, 0.19-5.00 μM",400 nM
same,% inhibition,[2]; [18],89%
546967 (e[5mC]*eA*e[5mC]*e[5mC]*eG*d[5mC]*dG*d[5mC]*dG*dA*dA*dT*dG*d[5mC]*d[5mC]*eT*eG*e[5mC]*e[5mC]*eT; antisense) [compound 546967],percent inhibition of PKK at 0.19 μM,[1]; [12],20%
same,percent inhibition of PKK at 0.56 μM,[1]; [12],39%
same,percent inhibition of PKK at 1.67 μM,[1]; [12],76%
same,percent inhibition of PKK at 5.00 μM,[1]; [12],71%
same,percent inhibition of PKK at 5.00 μM,[1]; [5],92%
same,percent inhibition of PKK at 0.19 0μM,[1]; [5],22%
same,percent inhibition of PKK at 0.56 0μM,[1]; [5],45%
same,percent inhibition of PKK at 1.67 1μM,[1]; [5],74%
same,IC50,[1]; [13],700 nM
same,IC50,[1]; [6],700 nM
same,% inhibition,[2]; [18],93%
546835 (eT*eA*eA*e[5mC]*eT*d[5mC]*dT*dA*dA*d[5mC]*dA*dG*dT*dA*dT*e[5mC]*eA*e[5mC]*eT*eG; antisense) [compound 546835],percent inhibition of PKK at 0.19 μM,[1]; [16],9%
same,percent inhibition of PKK at 0.56 μM,[1]; [16],35%
same,percent inhibition of PKK at 1.67 μM,[1]; [16],68%
same,percent inhibition of PKK at 5.00 μM,[1]; [16],93%
same,IC50,[1]; [17],900 nM
same,% inhibition,"[2]; Table 13, human PKK mRNA in HepaRG cells, 5-10-5 gapmers",86%
546310 (antisense eG*eA*eT*eT*e[5mC]*d[5mC]*d[5mC]*dT*dT*d[5mC]*dT*dG*dA*dG*dA*e[5mC]*eT*eT*eT*eA) [compound 546310],percent inhibition of PKK at 0.19 μM,[1]; [19],0%
same,percent inhibition of PKK at 0.56 μM,[1]; [19],36%
same,percent inhibition of PKK at 1.67 μM,[1]; [19],56%
same,percent inhibition of PKK at 5.00 μM,[1]; [19],80%
same,IC50,"[1]; 4 point dose response, HepaRG cells, Table 40",1300 nM
same,% inhibition,"[2]; Table 9 experiment, HepaRG cells, 20,000 cells per well, electroporation with 5,000 nM antisense oligonucleotide, approx. 24 hours, PKK mRNA by RT-PCR (RTS3454), relative to untreated control cells",78%
same,% inhibition,"[2]; Table 10 experiment, HepaRG cells, 20,000 cells per well, electroporation with 5,000 nM antisense oligonucleotide, approx. 24 hours, PKK mRNA by RT-PCR (RTS3454), relative to untreated control cells",67%
547298 (antisense eT*eT*eG*eG*eG*dT*dG*dG*dA*dA*dT*dG*dT*dG*d[5mC]*eA*e[5mC]*e[5mC]*eT*e[5mC]) [compound 547298],percent inhibition of PKK at 0.19 μM,[1]; [14],32%
same,percent inhibition of PKK at 0.56 μM,[1]; [14],61%
same,percent inhibition of PKK at 1.67 μM,[1]; [14],74%
same,percent inhibition of PKK at 5.00 μM,[1]; [14],90%
same,IC50,[1]; [15],400 nM
same,"percent inhibition of PKK mRNA, 0.19 μM",[1]; HepaRG cells,0%
same,"percent inhibition of PKK mRNA, 0.56 μM",[1]; HepaRG cells,12%
same,"percent inhibition of PKK mRNA, 1.67 μM",[1]; HepaRG cells,67%
same,"percent inhibition of PKK mRNA, 5.00 μM",[1]; HepaRG cells,87%
same,IC50,"[1]; HepaRG cells, 0.19-5.00 μM",1700 nM
same,% inhibition,"[2]; HepaRG cells, electroporation with 5,000 nM antisense oligonucleotide, approximately 24 hours, PKK mRNA by RT-PCR (RTS3454), relative to untreated control cells, Table 5 experiment",90%
